Source: US12258370B2, “Betulastatin compounds” (Arizona Board of Regents on behalf of Arizona State …, priority 2017, dated 2025)
≈ marks a conversion by molar mass, not a printed value.

Tests used:
Assay type in all cases: cell-based
[1] = tested on: DU-145 (prostate); assay: Sulforhodamine B human cancer cell growth inhibition, DU-145; conditions: DU-145 prostate cell line, compounds in DMSO, 48 h; for IC50: Homo sapiens, read-out: Gl50 Growth Inhibition, DU-145
Method: (§1) Cancer Cell Line Procedures. Inhibition of human cancer cell growth was assessed using the standard sulforhodamine B assay of the U.S. National Cancer Institute, as previously described.^15 To begin, cells in a 5% fetal bovine serum/RPMI1640 medium were inoculated in 96-well plates and incubated for 24 h. Next, serial dilutions of the compounds were added. After 48 h, the plates were fixed with trichloroacetic acid, stained with sulforhodamine B, and read with an automated microplate reader.

[2] = tested on: SF-268 (CNS); assay: Sulforhodamine B human cancer cell growth inhibition, SF-268; conditions: SF-268 CNS cell line, compounds in DMSO, 48 h; for IC50: Homo sapiens, read-out: Gl50 Growth Inhibition, SF-268
Method: as §1

[3] = tested on: MCF-7 (breast); assay: Sulforhodamine B human cancer cell growth inhibition, MCF-7; conditions: compounds in DMSO, 48 h; for Gl50 Growth Inhibition, MCF-7: MCF-7 breast cell line; for IC50: Homo sapiens, MCF7, MCF-7 breast cell line, read-out: Gl50 Growth Inhibition, MCF-7
Method: as §1

[4] = tested on: KM20L2 (colon); assay: Sulforhodamine B human cancer cell growth inhibition, KM20L2; conditions: compounds in DMSO, 48 h; for Gl50 Growth Inhibition, KM20L2: KM20L2 colon cell line; for IC50: Homo sapiens, KM-20L2, KM20L2 colon cell line, read-out: Gl50 Growth Inhibition, KM20L2
Method: as §1

[5] = tested on: BXPC-3 (pancreas); assay: Sulforhodamine B human cancer cell growth inhibition, BXPC-3; conditions: BXPC-3 pancreas cell line, compounds in DMSO, 48 h; for IC50: Homo sapiens, read-out: Gl50 Growth Inhibition, XPC-3
Method: as §1

[6] = tested on: Human Cancer Cell Lines; assay: Human cancer cell line panel, overall comparison of growth inhibition; conditions: general statement on Table 1; comparator not stated
Method: as §1, with “reader. A growth inhibition of 50% (GI50 or the drug concentration causing a 50% reduction in the net protein increase) was calculated from optical density data with Immunosoft® software.” for “reader.”

[7] = tested on: NCI-H460 (lung); assay: Sulforhodamine B human cancer cell growth inhibition, NCI-H460; conditions: NCI-H460 lung cell line, compounds in DMSO, 48 h; for IC50: Homo sapiens, read-out: Gl50 Growth Inhibition, NCI-H460
Method: as §1

Molecule | Gl50 Growth Inhibition, DU-145 [1] | Gl50 Growth Inhibition, SF-268 [2] | Gl50 Growth Inhibition, MCF-7 [3] | Gl50 Growth Inhibition, KM20L2 [4] | Gl50 Growth Inhibition, XPC-3 [5] | fold increase in cancer cell growth inhibition [6] | Gl50 Growth Inhibition, NCI-H460 [7] | IC50 [1] | IC50 [2] | IC50 [3] | IC50 [4] | IC50 [5] | IC50 [7]
3β-Amino-N-(Dap-Dil-Val-Dov)-betulin [Compound 11b] | 0.40 µg/mL | 0.40 µg/mL | 0.70 µg/mL | 0.85 µg/mL | 2.0 µg/mL | ~10 fold | 2.1 µg/mL |  |  |  |  |  | 
C=C(C)[C@@H]1CC[C@]2(COC(C)=O)CC[C@]3(C)[C@H](CC[C@@H]4[C@@]5(C)CCC(N)C(C)(C)[C@@H]5CC[C@]43C)[C@@H]12 (single isomer, unassigned) [Compound 9b, 3-α/β-Amino-28-O-acetyl-betulin] | 0.13 µg/mL | 0.21 µg/mL | 0.20 µg/mL | 0.35 µg/mL | 1.1 µg/mL | ~10 fold | 0.21 µg/mL |  |  |  |  |  | 
C=C(C)[C@@H]1CC[C@]2(CNC(=O)[C@H](C)[C@@H](OC)C3CCCN3C(=O)C[C@@H](OC)[C@H]([C@@H](C)CC)N(C)C(=O)C(NC(=O)[C@H](C(C)C)N(C)C)C(C)C)CC[C@]3(C)C(CCC4[C@@]5(C)CC[C@H](O)C(C)(C)C5CC[C@]43C)C12 (stereo partly drawn) [Compound 7b, Betulin-28-amino-N-(Dap-Dil-Val-Dov)] |  |  |  |  |  | ~10 fold |  | 0.4 µg/mL (≈ 0.391 µM) | 0.3 µg/mL (≈ 0.293 µM) | 0.4 µg/mL (≈ 0.391 µM) | 0.31 µg/mL (≈ 0.303 µM) | 0.6 µg/mL (≈ 0.587 µM) | > 1 µg/mL
C=C(CNC(=O)[C@H](C)[C@@H](OC)[C@@H]1CCCN1C(=O)OC(C)(C)C)[C@@H]1CC[C@]2(COC(C)=O)CC[C@]3(C)[C@H](CC[C@@H]4[C@@]5(C)CC[C@H](OC(C)=O)C(C)(C)[C@@H]5CC[C@]43C)[C@@H]12 [Compound 15b, 30-N-(Boc-dap)-3, 28-di-O-acetoxy-betulin] | >10 µg/mL | 5.9 µg/mL | >10 µg/mL | 7.0 µg/mL | >10 µg/mL |  | >10 µg/mL |  |  |  |  |  | 
C=C(CNC(=O)[C@H](C)[C@@H](OC)[C@@H]1CCCN1C(=O)C[C@@H](OC)[C@H]([C@@H](C)CC)N(C)C(=O)[C@@H](NC(=O)[C@H](C(C)C)N(C)C)C(C)C)[C@@H]1CC[C@]2(COC(C)=O)CC[C@]3(C)[C@H](CC[C@@H]4[C@@]5(C)CC[C@H](OC(C)=O)C(C)(C)[C@@H]5CC[C@]43C)[C@@H]12 [Compound 16a, 30-N-(Dap-Dil-Val-Dov)-3,28-di-O-acetoxy-betulin] | 3.0 µg/mL | 4.0 µg/mL | 6.3 µg/mL | 4.0 µg/mL | 8.0 µg/mL |  | >10 µg/mL |  |  |  |  |  | 
C=C(CNC(=O)[C@H](C)[C@@H](OC)C1CCCN1C(=O)C[C@@H](OC)[C@H]([C@@H](C)CC)N(C)C(=O)[C@@H](NC(=O)C(C(C)C)N(C)C)C(C)C)[C@@H]1CC[C@]2(CO)CC[C@]3(C)C(CCC4[C@@]5(C)CC[C@H](O)C(C)(C)[C@@H]5CC[C@]43C)[C@@H]12 (stereo partly drawn) [Compound 16b, 30-N-(Dap-Dil-Val-Dov)-betulin] |  |  |  |  |  | hundred-fold |  | 0.04 µg/mL (≈ 0.0385 µM) | 0.04 µg/mL (≈ 0.0385 µM) | 0.08 µg/mL (≈ 0.077 µM) | 0.09 µg/mL (≈ 0.0867 µM) | 0.4 µg/mL (≈ 0.385 µM) | 0.5 µg/mL (≈ 0.481 µM)
CC[C@H](C)C([C@@H](CC(=O)N1CCCC1[C@H](OC)[C@@H](C)C(=O)NCCN1C(=O)[C@]23CCC(C)(C)C1C2[C@H]1CCC2[C@@]4(C)CC[C@H](O)C(C)(C)C4CC[C@@]2(C)[C@]1(C)CC3)OC)N(C)C(=O)[C@@H](NC(=O)[C@H](C(C)C)N(C)C)C(C)C (stereo partly drawn) [Compound 18b, 28-Amido-allobetulin-28-N-1′-ethyldiamine-N-2′-Dap-Dil-Val-Dov] |  |  |  |  |  | ~10 fold |  | 0.06 µg/mL (≈ 0.0556 µM) | 0.09 µg/mL (≈ 0.0834 µM) | 0.21 µg/mL (≈ 0.195 µM) | 0.22 µg/mL (≈ 0.204 µM) | 0.31 µg/mL (≈ 0.287 µM) | 0.6 µg/mL (≈ 0.556 µM)
